Assay results published in PMC10755729, “A Multiplexing Activity-Based Protein-Profiling Platform for Dissection of a Native Bacterial Xyloglucan-Degrading System” (ACS Central Science, 2023).

Columns and labels:
CjCel5B = target: T1, CjCel5B (Cellvibrio japonicus, UniProt B3PCS3); test: fluorogenic hydrolysis kinetics; format: biochemical; settings: 4MU release
T1 construct: gene cel5B; recombinant, produced in E. coli; native protein has N-terminal catalytic domain, serine-rich linker and C-terminal domain; borders of construct only in supplement
T1 sequence (B3PCS3 38-570): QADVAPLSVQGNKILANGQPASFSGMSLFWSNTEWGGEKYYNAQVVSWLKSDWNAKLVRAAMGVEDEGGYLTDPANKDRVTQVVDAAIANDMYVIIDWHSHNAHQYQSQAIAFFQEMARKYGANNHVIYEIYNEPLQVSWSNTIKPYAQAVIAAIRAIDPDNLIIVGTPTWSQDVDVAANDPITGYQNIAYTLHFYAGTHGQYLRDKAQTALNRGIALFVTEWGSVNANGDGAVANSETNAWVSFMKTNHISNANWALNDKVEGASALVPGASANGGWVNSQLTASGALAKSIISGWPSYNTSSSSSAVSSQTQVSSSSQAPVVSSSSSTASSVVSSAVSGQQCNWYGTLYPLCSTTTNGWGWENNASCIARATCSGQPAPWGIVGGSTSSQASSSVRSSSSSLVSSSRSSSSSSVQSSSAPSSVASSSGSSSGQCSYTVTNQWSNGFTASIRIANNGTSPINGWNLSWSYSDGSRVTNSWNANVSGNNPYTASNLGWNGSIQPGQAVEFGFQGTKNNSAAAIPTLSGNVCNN

CjXyl39A; Xyl39A = target: T2, CjXyl39A; Xyl39A (Cellvibrio japonicus, UniProt B3PD50); test: fluorogenic activity assay on 4MU glycosides; format: biochemical; settings: recombinant enzyme
T2 construct: recombinant, produced in E. coli (native in the pull-down)
T2 sequence (B3PD50 24-521): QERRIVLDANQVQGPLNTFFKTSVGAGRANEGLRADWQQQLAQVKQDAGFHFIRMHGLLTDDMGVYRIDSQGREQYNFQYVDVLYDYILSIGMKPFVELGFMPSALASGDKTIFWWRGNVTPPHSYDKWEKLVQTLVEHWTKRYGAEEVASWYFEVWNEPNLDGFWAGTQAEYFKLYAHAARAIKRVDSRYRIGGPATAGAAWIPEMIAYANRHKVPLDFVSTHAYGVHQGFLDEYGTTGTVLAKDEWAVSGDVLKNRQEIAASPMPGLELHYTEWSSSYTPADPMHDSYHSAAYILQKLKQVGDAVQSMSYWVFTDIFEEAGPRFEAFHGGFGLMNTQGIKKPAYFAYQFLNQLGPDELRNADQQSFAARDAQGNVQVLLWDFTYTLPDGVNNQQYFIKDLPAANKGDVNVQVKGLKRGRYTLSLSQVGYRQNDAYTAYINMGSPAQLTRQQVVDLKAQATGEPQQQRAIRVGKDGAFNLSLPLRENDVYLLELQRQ

For `Cc1cc(=O)oc2cc(O[C@@H]3O[C@H](CO)[C@@H](O[C@@H]4O[C@H](CO[C@H]5OC[C@@H](O)[C@H](O)[C@H]5O)[C@@H](O[C@@H]5O[C@H](CO[C@H]6OC[C@@H](O)[C@H](O)[C@H]6O)[C@@H](O[C@@H]6O[C@H](CO[C@H]7OC[C@@H](O)[C@H](O)[C@H]7O)[C@@H](O)[C@H](O)[C@H]6O)[C@H](O)[C@H]5O)[C@H](O)[C@H]4O)[C@H](O)[C@H]3O)ccc12` [4MU-XXXG], the hydrolysis kinetics (CjCel5B) was “Kinetics for the hydrolysis of 4MU-XXXG and commercially available 4MU-cellotetraose were measured”.

With `Cc1cc(=O)oc2cc(O[C@@H]3OC[C@@H](O)[C@H](O)[C@H]3O)ccc12` [4-methylumbelliferyl (4MU) glycoside of β-D-xylose] the activity (CjXyl39A; Xyl39A) was “showed specific recognition of β-D-xylose over other glycosides”.
